In one series the target is T1, human beta2-adrenoceptor (Homo sapiens, UniProt P07550).
T1 construct: expressed in transfected cells; host or cells: CHO cells
Kind of series: 3H-CGP12177 whole-cell binding, beta2. Conditions: 3H-CGP 12177 whole cell binding, CHO cells expressing human beta2-adrenoceptor; logarithmic value; read-out: Beta 2 Log KD (converted). As to the method:
(§1) Selectivity of ligands for the three beta-adrenoceptors was assessed by whole-cell binding studies using ^3H-CGP12177 in CHO cells expressing the human beta1, beta2 or beta3-adrenoceptors respectively essentially as described by Baker (2005; Br. J Pharmacol: 144, 317-22) Values shown are KD values determined as described by Baker (2005). KD represents the concentration of compound required to occupy 50% of the receptors in cells or tissues.
(§2) The selectivity of a ligand is given by the ratio of beta-1 to beta-2 KD. Accordingly a difference of one in the logarithmic values thereof represents a 10-fold selectivity, a difference of 2 represents 100-fold selectivity and a difference of 3 represents 1000-fold selectivity etc.

In the next series the target is T2, human beta1-adrenoceptor (Homo sapiens, UniProt P08588).
T2 construct: expressed in transfected cells; host or cells: CHO cells
T2 sequence (P08588 whole entry): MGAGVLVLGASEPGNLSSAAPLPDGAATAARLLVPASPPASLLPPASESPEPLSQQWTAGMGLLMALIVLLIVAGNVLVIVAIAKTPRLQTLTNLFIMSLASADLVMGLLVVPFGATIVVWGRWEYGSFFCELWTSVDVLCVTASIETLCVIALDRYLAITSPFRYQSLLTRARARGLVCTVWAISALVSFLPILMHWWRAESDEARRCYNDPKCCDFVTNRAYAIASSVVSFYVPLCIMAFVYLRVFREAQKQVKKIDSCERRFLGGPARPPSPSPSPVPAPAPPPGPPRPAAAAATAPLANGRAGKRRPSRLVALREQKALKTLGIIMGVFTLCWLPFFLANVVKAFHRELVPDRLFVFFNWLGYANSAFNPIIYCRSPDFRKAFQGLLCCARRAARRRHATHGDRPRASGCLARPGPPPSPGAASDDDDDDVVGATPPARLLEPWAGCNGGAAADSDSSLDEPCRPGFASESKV
Kind of series: 3H-CGP12177 whole-cell binding, beta1. As to conditions: for Kd: 3H-CGP 12177 whole cell binding, CHO cells expressing human beta1-adrenoceptor, logarithmic value, read-out: Beta 1 Log KD (converted); for Beta 1-Beta 2 Log KD (selectivity): difference of Log KD beta1 and beta2, 1 = 10-fold, 2 = 100-fold, 3 = 1000-fold selectivity. As to the method:
as §1, §2

Another series addresses β1-adrenoceptor (Homo sapiens, UniProt P08588). As to conditions: background statement on known compounds; cited from earlier work.

Structures are written as SMILES. Where only a bound is given, the exact number is not on record here.

β1-adrenoceptor, sequence (P08588 whole entry, species assumed): as the sequence (P08588 whole entry) above
T1 sequence (P07550 whole entry): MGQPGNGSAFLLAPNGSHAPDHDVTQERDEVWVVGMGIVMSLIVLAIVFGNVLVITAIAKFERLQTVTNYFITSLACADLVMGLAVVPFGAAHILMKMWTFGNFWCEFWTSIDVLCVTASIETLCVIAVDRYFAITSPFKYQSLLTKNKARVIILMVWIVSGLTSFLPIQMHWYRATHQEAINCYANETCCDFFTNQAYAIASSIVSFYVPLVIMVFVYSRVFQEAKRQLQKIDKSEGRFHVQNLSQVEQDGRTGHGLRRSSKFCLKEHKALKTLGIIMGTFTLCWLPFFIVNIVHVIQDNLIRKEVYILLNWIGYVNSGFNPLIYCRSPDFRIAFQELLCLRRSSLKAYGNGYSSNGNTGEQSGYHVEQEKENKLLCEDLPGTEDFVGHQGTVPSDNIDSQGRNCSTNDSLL

As for `O=C1NCc2cc(OCCNC[C@H](O)COc3ccc4c(c3)OC[C@@H](CN3CCC(F)(F)CC3)O4)ccc21` [Example 43, 5-(2-((S)-3-((R)-2-((4,4-difluoropiperidin-1-yl)methyl)-2,3-dihydrobenzo[b][1,4]-dioxin-6-yloxy)-2-hydroxypropylamino)ethoxy)isoindolin-1-one], the melting point is 134 to 135 °C. Also, the Kd at human beta2-adrenoceptor was 2750 nM. On human beta1-adrenoceptor, the Kd is 4.27 nM and the “Beta 1-Beta 2 Log KD (selectivity)” value came out at 2.81.

In turn, `CC1(C)COc2cc(OC[C@@H](O)CNCCOc3ccc(C(N)=O)cc3)ccc2O1` [Example 44, (S)-4-(2-(3-(2,2-dimethyl-2,3-dihydrobenzo[b][1,4]dioxin-6-yloxy)-2-hydroxypropyl-amino)ethoxy)benzamide] yielded a melting point of 101 to 103 °C. At human beta2-adrenoceptor, the Kd is more than 100000 nM. For the same compound, at human beta1-adrenoceptor, the Kd is 316 nM and the “Beta 1-Beta 2 Log KD (selectivity)” value is listed as less than 2.50.

Consider `CCOCCOc1ccc(OC[C@@H](O)CNCCc2ccc(OC)c(OC)c2)cc1` [Example D-140S], for which, on β1-adrenoceptor, the β1-selectivity was 4,400 fold.

Regarding `N#Cc1cc(OCCOCC2CC2)ccc1OCC(O)CNCCNC(=O)Nc1ccc(O)cc1` (stereo not shown) [LK-204545], the β1-selectivity on β1-adrenoceptor is reported as 1,778 fold.

These data come from patent US20140094493A1, “Novel Ether Linked Compounds and Improved Treatments for Cardiac and Cardiovascular Disease” (priority 2011, published 2014).
